Source: patent EP0217101A1, “Substituted diphenyl ethers, process for their preparation and their use as herbicides” (HOECHST AKTIENGESELLSCHAFT, priority 1985, dated 1987)

What follows are compounds tested on Avena sativa (assay: Weed control pre-emergence (greenhouse pot test)). Details: pre-emergence, 2,5 kg a.i./ha, visual rating after 3-4 weeks.
Format: in vivo
Excerpt: (§1) Die Schädigung der Unkrautpflanzen bzw. die Kulturpflanzenverträglichkeit wurde gemäß einem Schlüssel bonitiert, in dem die Wirksamkeit durch Wertzahlen von 0 - 5 ausgedrückt ist. Dabei bedeutet:
(§2) Samen bzw. Rhizomstücke von mono- und dikotylen Unkrautpflanzen wurden in Plasstiktöpfen (0 = 9 cm) in sandiger Lehmerde ausgelegt und mit Erde abgedeckt. Die in Form von benetzbaren Pulvern oder Emulsionskonzentraten formulierten erfindungsgemäßen Verbindungen wurden dann als wäßrige Suspensionen bzw. Emulsionen mit einer Wasseraufwandmenge von umgerechnet 600-800 1/ha in unterschiedlichen Dosierungen auf die Oberfläche der Abdeckerde appliziert. Nach der Behandlung wurden die Töpfe im Gewächshaus aufgestellt und unter guten Wachstumsbedingungen für die Unkrautpflanzen gehalten (Temperatur 23 plus/minus 1 Grad Celsius, relative Luftfeuchte 60-80 %).
(§3) Die optische Bonitur der Pflanzen- bzw. Auflaufschäden erfolgte nach dem Auflaufen der Versuchspflanzen nach einer Versuchszeit von 3-4 Wochen im Vergleich zu unbehandelten Kontrollen.

SMILES	Herbizide Wirkung im Vorauflauf AS
CCOC(=O)C(C)OC(OC(=O)c1cc(Oc2c(Cl)cc(C(F)(F)F)cc2Cl)ccc1[N+](=O)[O-])C(Cl)(Cl)Cl (stereo not drawn) [compound 34]	2 (= 20 - 40 % Wirkung bzw. Schaden)
Cc1ncsc1COC(OC(=O)c1cc(Oc2ccc(C(F)(F)F)cc2Cl)ccc1[N+](=O)[O-])C(Cl)(Cl)Cl (stereo not drawn) [compound 37]	2 (= 20 - 40 % Wirkung bzw. Schaden)
CP(C)(=O)COC(OC(=O)c1cc(Oc2ccc(C(F)(F)F)cc2Cl)ccc1[N+](=O)[O-])C(Cl)(Cl)Cl (stereo not drawn) [compound 46]	4 (= 60 - 80 % Wirkung bzw. Schaden)

These compounds were tested on Chrysanthemum segetum (assay: Weed control pre-emergence (greenhouse pot test)). Details: pre-emergence, 2,5 kg a.i./ha, visual rating after 3-4 weeks.
Format: in vivo
Excerpt: as §1, §2, §3

SMILES	Herbizide Wirkung im Vorauflauf CRS
CCOC(=O)C(C)OC(OC(=O)c1cc(Oc2c(Cl)cc(C(F)(F)F)cc2Cl)ccc1[N+](=O)[O-])C(Cl)(Cl)Cl (stereo not drawn) [compound 34]	5 (= 80 - 100 % Wirkung bzw. Schaden)
Cc1ncsc1COC(OC(=O)c1cc(Oc2ccc(C(F)(F)F)cc2Cl)ccc1[N+](=O)[O-])C(Cl)(Cl)Cl (stereo not drawn) [compound 37]	3 (= 40 - 60 % Wirkung bzw. Schaden)
CP(C)(=O)COC(OC(=O)c1cc(Oc2ccc(C(F)(F)F)cc2Cl)ccc1[N+](=O)[O-])C(Cl)(Cl)Cl (stereo not drawn) [compound 46]	5 (= 80 - 100 % Wirkung bzw. Schaden)

Each compound was assayed on Sinapis arvensis (assay: Weed control pre-emergence (greenhouse pot test)). Details: pre-emergence, 2,5 kg a.i./ha, visual rating after 3-4 weeks.
Format: in vivo
Excerpt: as §1, §2, §3

SMILES	Herbizide Wirkung im Vorauflauf SIA
CCOC(=O)C(C)OC(OC(=O)c1cc(Oc2c(Cl)cc(C(F)(F)F)cc2Cl)ccc1[N+](=O)[O-])C(Cl)(Cl)Cl (stereo not drawn) [compound 34]	5 (= 80 - 100 % Wirkung bzw. Schaden)
Cc1ncsc1COC(OC(=O)c1cc(Oc2ccc(C(F)(F)F)cc2Cl)ccc1[N+](=O)[O-])C(Cl)(Cl)Cl (stereo not drawn) [compound 37]	4 (= 60 - 80 % Wirkung bzw. Schaden)
CP(C)(=O)COC(OC(=O)c1cc(Oc2ccc(C(F)(F)F)cc2Cl)ccc1[N+](=O)[O-])C(Cl)(Cl)Cl (stereo not drawn) [compound 46]	5 (= 80 - 100 % Wirkung bzw. Schaden)

Each compound was assayed on Echinochloa crus-galli (assay: Weed control pre-emergence (greenhouse pot test)). Details: pre-emergence, 2,5 kg a.i./ha, visual rating after 3-4 weeks.
Format: in vivo
Excerpt: as §1, §2, §3

SMILES	Herbizide Wirkung im Vorauflauf ECG
CCOC(=O)C(C)OC(OC(=O)c1cc(Oc2c(Cl)cc(C(F)(F)F)cc2Cl)ccc1[N+](=O)[O-])C(Cl)(Cl)Cl (stereo not drawn) [compound 34]	1 (= 0 - 20 % Wirkung bzw. Schaden)
Cc1ncsc1COC(OC(=O)c1cc(Oc2ccc(C(F)(F)F)cc2Cl)ccc1[N+](=O)[O-])C(Cl)(Cl)Cl (stereo not drawn) [compound 37]	2 (= 20 - 40 % Wirkung bzw. Schaden)
CP(C)(=O)COC(OC(=O)c1cc(Oc2ccc(C(F)(F)F)cc2Cl)ccc1[N+](=O)[O-])C(Cl)(Cl)Cl (stereo not drawn) [compound 46]	5 (= 80 - 100 % Wirkung bzw. Schaden)

These compounds were tested on Stellaria media (assay: Weed control pre-emergence (greenhouse pot test)). Details: pre-emergence, 2,5 kg a.i./ha, visual rating after 3-4 weeks.
Format: in vivo
Excerpt: as §1, §2, §3

SMILES	Herbizide Wirkung im Vorauflauf STM
CCOC(=O)C(C)OC(OC(=O)c1cc(Oc2c(Cl)cc(C(F)(F)F)cc2Cl)ccc1[N+](=O)[O-])C(Cl)(Cl)Cl (stereo not drawn) [compound 34]	5 (= 80 - 100 % Wirkung bzw. Schaden)
Cc1ncsc1COC(OC(=O)c1cc(Oc2ccc(C(F)(F)F)cc2Cl)ccc1[N+](=O)[O-])C(Cl)(Cl)Cl (stereo not drawn) [compound 37]	1 (= 0 - 20 % Wirkung bzw. Schaden)
CP(C)(=O)COC(OC(=O)c1cc(Oc2ccc(C(F)(F)F)cc2Cl)ccc1[N+](=O)[O-])C(Cl)(Cl)Cl (stereo not drawn) [compound 46]	1 (= 0 - 20 % Wirkung bzw. Schaden)

These compounds were tested on Avena sativa (assay: Weed control post-emergence (greenhouse pot test)). Details: post-emergence (three-leaf stage), 2,5 kg a.i./ha, visual rating after ca. 3-4 weeks.
Format: in vivo
Excerpt: as §1
(§4) Samen bzw. Rhizomstüeke von mono- und dikotylen Unkräutern wurden in Plasstiktöpfen (φ= 9 cm) in sandigem Lehmboden ausgelegt, mit Erde abgedeckt und im Gewächshaus unter guten Wachstumsbedingungen angezogen. Drei Wochen nach der Aussaat wurden die Versuchspflanzen im Dreiblattstadium behandelt. Die als Spritzpulver bzw. als Eτulsionskonzentrate formulierten erfindungsgemäßen Verbindungen wurden in verschiedenen Dosierungen mit einer Wasseraufwandmenge von umgerechnet 600-800 l/ha auf die grünen Pflanzenteile gesprüht und nach ca. 3-4 Wochen Standzeit der Versuchspflanzen im Gewächshaus unter optimalen Wachstumsbedingungen (Temperatur 23°C +/- 1°C, relative Luftfeuchte 60-80 %) die Wirkung der Präparate optisch im Vergleich zu unbehandelten Kontrollen bonitiert.

SMILES	Herbizide Wirkung im Nachauflauf AS
CCOC(=O)C(C)OC(OC(=O)c1cc(Oc2c(Cl)cc(C(F)(F)F)cc2Cl)ccc1[N+](=O)[O-])C(Cl)(Cl)Cl (stereo not drawn) [compound 34]	5 (= 80 - 100 % Wirkung bzw. Schaden)
Cc1ncsc1COC(OC(=O)c1cc(Oc2ccc(C(F)(F)F)cc2Cl)ccc1[N+](=O)[O-])C(Cl)(Cl)Cl (stereo not drawn) [compound 37]	2 (= 20 - 40 % Wirkung bzw. Schaden)
CP(C)(=O)COC(OC(=O)c1cc(Oc2ccc(C(F)(F)F)cc2Cl)ccc1[N+](=O)[O-])C(Cl)(Cl)Cl (stereo not drawn) [compound 46]	2 (= 20 - 40 % Wirkung bzw. Schaden)

These compounds were tested on Chrysanthemum segetum (assay: Weed control post-emergence (greenhouse pot test)). Details: post-emergence (three-leaf stage), 2,5 kg a.i./ha, visual rating after ca. 3-4 weeks.
Format: in vivo
Excerpt: as §1, §4

SMILES	Herbizide Wirkung im Nachauflauf CRS
CCOC(=O)C(C)OC(OC(=O)c1cc(Oc2c(Cl)cc(C(F)(F)F)cc2Cl)ccc1[N+](=O)[O-])C(Cl)(Cl)Cl (stereo not drawn) [compound 34]	5 (= 80 - 100 % Wirkung bzw. Schaden)
Cc1ncsc1COC(OC(=O)c1cc(Oc2ccc(C(F)(F)F)cc2Cl)ccc1[N+](=O)[O-])C(Cl)(Cl)Cl (stereo not drawn) [compound 37]	4 (= 60 - 80 % Wirkung bzw. Schaden)
CP(C)(=O)COC(OC(=O)c1cc(Oc2ccc(C(F)(F)F)cc2Cl)ccc1[N+](=O)[O-])C(Cl)(Cl)Cl (stereo not drawn) [compound 46]	5 (= 80 - 100 % Wirkung bzw. Schaden)

Each compound was assayed on Sinapis arvensis (assay: Weed control post-emergence (greenhouse pot test)). Details: post-emergence (three-leaf stage), 2,5 kg a.i./ha, visual rating after ca. 3-4 weeks.
Format: in vivo
Excerpt: as §1, §4

SMILES	Herbizide Wirkung im Nachauflauf SIA
CCOC(=O)C(C)OC(OC(=O)c1cc(Oc2c(Cl)cc(C(F)(F)F)cc2Cl)ccc1[N+](=O)[O-])C(Cl)(Cl)Cl (stereo not drawn) [compound 34]	5 (= 80 - 100 % Wirkung bzw. Schaden)
Cc1ncsc1COC(OC(=O)c1cc(Oc2ccc(C(F)(F)F)cc2Cl)ccc1[N+](=O)[O-])C(Cl)(Cl)Cl (stereo not drawn) [compound 37]	5 (= 80 - 100 % Wirkung bzw. Schaden)
CP(C)(=O)COC(OC(=O)c1cc(Oc2ccc(C(F)(F)F)cc2Cl)ccc1[N+](=O)[O-])C(Cl)(Cl)Cl (stereo not drawn) [compound 46]	5 (= 80 - 100 % Wirkung bzw. Schaden)

Each compound was assayed on Echinochloa crus-galli (assay: Weed control post-emergence (greenhouse pot test)). Details: post-emergence (three-leaf stage), 2,5 kg a.i./ha, visual rating after ca. 3-4 weeks.
Format: in vivo
Design: key: 0: = ohne Wirkung bzw. Schaden; 1: = 0 - 20 % Wirkung bzw. Schaden; = 20 - 40 % Wirkung bzw. Schaden; 3: = 40 - 60 % Wirkung bzw. Schaden; 4: = 60 - 80 % Wirkung bzw. Schaden; 5: = 80 - 100 % Wirkung bzw. Schaden
Excerpt: as §1, §4

SMILES	Herbizide Wirkung im Nachauflauf ECG
CCOC(=O)C(C)OC(OC(=O)c1cc(Oc2c(Cl)cc(C(F)(F)F)cc2Cl)ccc1[N+](=O)[O-])C(Cl)(Cl)Cl (stereo not drawn) [compound 34]	4 (= 60 - 80 % Wirkung bzw. Schaden)
Cc1ncsc1COC(OC(=O)c1cc(Oc2ccc(C(F)(F)F)cc2Cl)ccc1[N+](=O)[O-])C(Cl)(Cl)Cl (stereo not drawn) [compound 37]	2 (= 20 - 40 % Wirkung bzw. Schaden)
CP(C)(=O)COC(OC(=O)c1cc(Oc2ccc(C(F)(F)F)cc2Cl)ccc1[N+](=O)[O-])C(Cl)(Cl)Cl (stereo not drawn) [compound 46]	2 (= 20 - 40 % Wirkung bzw. Schaden)

The compounds below were run on Stellaria media (assay: Weed control post-emergence (greenhouse pot test)). Details: post-emergence (three-leaf stage), 2,5 kg a.i./ha, visual rating after ca. 3-4 weeks.
Format: in vivo
Design: key: 0: = ohne Wirkung bzw. Schaden; 1: = 0 - 20 % Wirkung bzw. Schaden; = 20 - 40 % Wirkung bzw. Schaden; 3: = 40 - 60 % Wirkung bzw. Schaden; 4: = 60 - 80 % Wirkung bzw. Schaden; 5: = 80 - 100 % Wirkung bzw. Schaden
Excerpt: as §1, §4

SMILES	Herbizide Wirkung im Nachauflauf STM
CCOC(=O)C(C)OC(OC(=O)c1cc(Oc2c(Cl)cc(C(F)(F)F)cc2Cl)ccc1[N+](=O)[O-])C(Cl)(Cl)Cl (stereo not drawn) [compound 34]	5 (= 80 - 100 % Wirkung bzw. Schaden)
Cc1ncsc1COC(OC(=O)c1cc(Oc2ccc(C(F)(F)F)cc2Cl)ccc1[N+](=O)[O-])C(Cl)(Cl)Cl (stereo not drawn) [compound 37]	0
CP(C)(=O)COC(OC(=O)c1cc(Oc2ccc(C(F)(F)F)cc2Cl)ccc1[N+](=O)[O-])C(Cl)(Cl)Cl (stereo not drawn) [compound 46]	2 (= 20 - 40 % Wirkung bzw. Schaden)
